Consider 17 compounds from patent publication EP4800015A1, “AZABICYCLO DERIVATIVE AND PREPARATION METHOD THEREFOR, AND USE” (Zhejiang Hisun Pharmaceutical Co., Ltd., priority 2023, dated 2025).

Usually pIC50 stands for −log10 of the IC50, conventionally taken in molar units.

Structures are written as SMILES. pIC50: −log10 of the molar value. Like-named read-outs stand apart in the source and are kept apart here.

The target of this assay is T1, recombinant human WRN (Homo sapiens, UniProt Q14191).
T1 construct: purchased BPS 101264
T1 sequence (Q14191 whole entry): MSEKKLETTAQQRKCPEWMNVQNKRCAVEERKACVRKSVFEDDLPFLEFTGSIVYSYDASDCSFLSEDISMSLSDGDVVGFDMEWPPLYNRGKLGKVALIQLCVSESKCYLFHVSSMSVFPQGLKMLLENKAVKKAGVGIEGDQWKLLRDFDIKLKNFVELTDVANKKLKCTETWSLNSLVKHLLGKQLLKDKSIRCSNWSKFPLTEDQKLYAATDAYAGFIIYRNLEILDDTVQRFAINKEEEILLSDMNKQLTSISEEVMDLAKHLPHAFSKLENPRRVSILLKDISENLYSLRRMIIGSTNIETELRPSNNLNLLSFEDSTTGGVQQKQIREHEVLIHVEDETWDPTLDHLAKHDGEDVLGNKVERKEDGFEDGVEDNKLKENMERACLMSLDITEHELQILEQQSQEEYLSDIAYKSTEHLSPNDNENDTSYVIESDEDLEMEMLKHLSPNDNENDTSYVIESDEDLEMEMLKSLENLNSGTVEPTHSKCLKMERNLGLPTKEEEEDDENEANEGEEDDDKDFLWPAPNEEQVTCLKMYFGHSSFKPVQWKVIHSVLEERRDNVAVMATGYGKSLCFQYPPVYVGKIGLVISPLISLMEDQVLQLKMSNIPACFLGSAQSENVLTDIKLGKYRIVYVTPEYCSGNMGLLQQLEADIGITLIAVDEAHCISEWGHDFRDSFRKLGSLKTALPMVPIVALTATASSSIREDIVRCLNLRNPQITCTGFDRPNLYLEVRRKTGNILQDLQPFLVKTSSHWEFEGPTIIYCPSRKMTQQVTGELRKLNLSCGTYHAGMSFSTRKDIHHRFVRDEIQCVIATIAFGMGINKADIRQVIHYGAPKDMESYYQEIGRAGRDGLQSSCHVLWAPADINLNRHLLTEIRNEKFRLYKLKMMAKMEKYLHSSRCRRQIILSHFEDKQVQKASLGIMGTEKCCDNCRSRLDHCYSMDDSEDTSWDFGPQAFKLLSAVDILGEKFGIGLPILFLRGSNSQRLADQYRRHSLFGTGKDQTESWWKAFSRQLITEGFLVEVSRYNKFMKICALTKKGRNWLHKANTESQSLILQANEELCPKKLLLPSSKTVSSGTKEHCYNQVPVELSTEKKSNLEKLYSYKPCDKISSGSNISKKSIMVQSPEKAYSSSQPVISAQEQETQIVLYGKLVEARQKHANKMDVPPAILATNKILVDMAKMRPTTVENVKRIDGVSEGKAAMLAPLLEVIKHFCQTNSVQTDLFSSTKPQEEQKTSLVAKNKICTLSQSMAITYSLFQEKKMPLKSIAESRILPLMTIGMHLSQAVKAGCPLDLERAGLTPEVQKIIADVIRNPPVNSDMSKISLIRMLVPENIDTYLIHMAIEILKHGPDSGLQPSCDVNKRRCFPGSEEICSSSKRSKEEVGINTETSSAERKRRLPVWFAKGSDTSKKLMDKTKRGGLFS
Nature of the assay: Inhibition of WRN enzyme activity (ATPase), ADP-Glo Kinase Assay. The format is biochemical. Conditions: WRN protein 5 nM, Flap 0.1 nM, ATP 30 µM. From the text: The following method was used to determine the degree of inhibition of recombinant human WRN ATPase activity by the compounds of the present disclosure in vitro. In this method, ADP-Glo™ Kinase Assay kit (catalog No. V9102) from Promega was used. Detailed experimental procedures can be found in the kit manual.
The experimental procedure was briefly described as follows: test compounds were first dissolved in DMSO to prepare stock solutions, followed by serial dilution using reaction buffer (30 mM Tris, pH 7.5, 2 mM MgCl2, 50 mM NaCl, 0.02% BSA, 0.1% Pluronic F127), with final concentrations of test compounds in the reaction system ranging from 1000 nM to 0.004 nM; WRN protein (purchased from BPS, catalog No. 101264), substrate 5-flap oligonucleotide (Flap26) (synthesized by Shanghai Generay Biotech Co., Ltd., sequence 5'-[…]-3'), and ATP working solution (from ADP-Glo™ Kinase Assay kit component V915A) were prepared using reaction buffer. Reactions were performed in 384-well microplates. At first the compounds and recombinant human WRN protein (final concentration 5 nM) were added to the wells and the plate was incubated at room temperature for 15 minutes, then Flap solution (final concentration 0.1 nM) and ATP solution (final concentration 30 µM) were added to the reaction solution and the plate was incubated at room temperature for 10 minutes. Subsequently, 5 µL of ADP-Glo Reagent was added to the reaction system and incubated at room temperature for 40 minutes. Then 10 µL of Kinase Detection Reagent was added to the reaction system and incubated at room temperature for 30 minutes. After the incubation was completed, chemiluminescence intensity values of each well were measured using a microplate reader in luminescence mode. The percentage inhibition of the compounds at each concentration was calculated by comparison with the luminescence intensity values of the control group (0.1% DMSO), and IC50 values of compounds were obtained by nonlinear regression analysis of compound concentration logarithm-inhibition rate using GraphPad Prism 9 software, as shown in Table 1.
The IC50 value results of the compounds of the present disclosure are expressed as AA and A, respectively as follows: "AA" indicates IC50 ≤ 1 nM; "A" indicates 1 nM < IC50 ≤ 100 nM. Table 1 IC50 of the compounds of the present disclosure for inhibiting WRN enzyme activity (ATPase)
For orientation: In ADP-Glo the light output rises with the ADP produced.

Consider `CCc1c(N2CCN(C(=O)c3ncnc(C)c3O)CC2)c(=O)n2nc(-c3cc4cccnc4s3)nc2n1CC(=O)Nc1ccc(C(F)(F)F)cc1Cl` [Example 131, N-(2-chloro-4-(trifluoromethyl)phenyl)-2-(5-ethyl-6-(4-(5-hydroxy-6-methylpyrimidine-4-carbonyl)piperazin-1-yl)-7-oxo-2-(thieno[2,3-b]pyridin-2-yl)-[1,2,4]triazolo[1,5-a]pyrimidin-4(7H)-yl)a cetamide], for which the pIC50 (read-out: IC50) was 7.00 to 9.00.

On to `CCc1c(N2CCN(C(=O)c3ncnc(C)c3O)CC2)c(=O)n2nc(C3=CC4(CCNCC4)C3)nc2n1CC(=O)Nc1ccc(C(F)(F)F)cc1Cl` [Example 143, N-(2-chloro-4-(trifluoromethyl)phenyl)-2-(5-ethyl-6-(4-(5-hydroxy-6-methylpyrimidine-4-carbonyl)piperazin-1-yl)-7-oxo-2-(7-azaspiro[3.5]non-1-en-2-yl)-[1,2,4]triazolo[1,5-a]pyrimidin-4(7H)-yl)acetamide], for which the pIC50 (read-out: IC50) was 7.00 to 9.00.

For the compound `CCc1c(N2CCN(C(=O)c3ncnc(C)c3O)CC2)c(=O)n2nc(C3=CC4CN(C(C)=O)CC4C3)nc2n1CC(=O)Nc1ccc(C(F)(F)F)cc1Cl` (centres unmarked) [Example 145, 2-(2-(2-Acetyl-1,2,3,3a,4,6a-hexahydrocyclopenta[c]pyrrol-5-yl)-5-ethyl-6-(4-(5-hydroxy-6-methylpyrimidine-4-carbonyl)piperazin-1-yl)-7-oxo-[1,2,4]triazolo[1,5-a]pyrimidin-4(7H)-yl)-N-(2-chloro-4-(trifluoromethyl)phenyl)acetamide], the negative logarithm of the IC50 (pIC50) (read-out: IC50) was 7.00 to 9.00.

As to `CCc1c(N2CCN(C(=O)c3ncnc(C)c3O)CC2)c(=O)n2nc(-c3ccc4c(c3)C(=O)NC4)nc2n1CC(=O)Nc1ccc(C(F)(F)F)cc1Cl` [Example 127, N-(2-chloro-4-(trifluoromethyl)phenyl)-2-(5-ethyl-6-(4-(5-hydroxy-6-methylpyrimidine-4-carbonyl)piperazin-1-yl)-7-oxo-2-(3-oxoisoindolin-5-yl)-[1,2,4]triazolo[1,5-a]pyrimidin-4(7H)-yl)acetamide], under “read-out: IC50”, the pIC50 was 7.00 to 9.00.

For `CCc1c(N2CCN(C(=O)c3ncccc3O)CC2)c(=O)n2nc(C3=CC4CC(=O)CC4C3)cc2n1CC(=O)Nc1ccc(C(F)(F)F)cc1Cl` (centres unmarked) [Example 56, N-(2-chloro-4-(trifluoromethyl)phenyl)-2-(5-ethyl-6-(4-(3-hydroxypicolinoyl)piperazin-1-yl)-7-oxo-2-(5-oxo-1,3a,4,5,6,6a-hexahydropentalen-2-yl)pyrazolo[1,5-a]pyrimidin-4(7H)-yl)acetamide], the pIC50 (read-out: IC50) is 7.00 to 9.00.

On to `CCO/C=C/c1nc2n(CC(=O)Nc3ccc(C(F)(F)F)cc3Cl)c(CC)c(N3CCN(C(=O)c4ncnc(C)c4O)CC3)c(=O)n2n1` [Example 193, (E)-N-(2-chloro-4-(trifluoromethyl)phenyl)-2-(2-(2-ethoxyvinyl)-5-ethyl-6-(4-(5-hydroxy-6-methylpyrimidine-4-carbonyl)piperazin-1-yl)-7-oxo-[1,2,4]triazolo[1,5-a]pyrimidin-4(7H)-yl)acetamide], for which the pIC50 (read-out: IC50) is 7.00 to 9.00.

Take `CCc1c(N2CCN(C(=O)c3ncnc(C)c3O)CC2)c(=O)n2nc(-c3ccc4ccoc4c3)nc2n1CC(=O)Nc1ccc(SC(F)(F)F)cc1` [Example 90, 2-(2-(benzofuran-6-yl)-5-ethyl-6-(4-(5-hydroxy-6-methylpyrimidine-4-carbonyl)piperazin-1-yl)-7-oxo-[1,2,4]triazolo[1,5-a]pyrimidin-4(7H)-yl)-N-(4-((trifluoromethyl)thio)phenyl)acetamide]: under “read-out: IC50”, the pIC50 was 7.00 to 9.00.

Regarding `CCc1c(N2CCN(C(=O)c3ncccc3O)CC2)c(=O)n2nc(C3=CC4COCC4C3)nc2n1CC(=O)Nc1ccc(S(F)(F)(F)(F)F)cc1` (centres unmarked) [Example 187, 2-(5-ethyl-6-(4-(3-hydroxypicolinoyl)piperazin-1-yl)-7-oxo-2-(3,3a,4,6a-tetrahydro-1H-cyclopenta[c]furan-5-yl)-[1,2,4]triazolo[1,5-a]pyrimidin-4(7H)-yl)-N-(4-(pentafluoro-λ^6-sulfaneyl)phenyl) acetamide], the pIC50 is 7.00 to 9.00.

With `CCc1c(N2CCN(C(=O)c3ncnc(C)c3O)CC2)c(=O)n2nc(C3=CCCCCC3)nc2n1CC(=O)Nc1ccc(C(F)(F)F)cc1OC` [Example 48, 2-(2-(cyclohept-1-en-1-yl)-5-ethyl-6-(4-(5-hydroxy-6-methylpyrimidine-4-carbonyl)piperazin-1-yl)-7-oxo-[1,2,4]triazolo[1,5-a]pyrimidin-4(7H)-yl)-N-(2-methoxy-4-(trifluoromethyl)phenyl)ace tamide], the negative logarithm of the IC50 (pIC50) (read-out: IC50) is 7.00 to 9.00.

For the compound `CCc1c(N2CCN(C(=O)c3ncccc3O)CC2)c(=O)n2nc(C3=CCCCCC3)nc2n1CC(=O)Nc1ccc(C(F)(F)F)cc1Cl` [Example 45, N-(2-chloro-4-(trifluoromethyl)phenyl)-2-(2-(cyclohept-1-en-1-yl)-5-ethyl-6-(4-(3-hydroxypicolinoyl)piperazin-1-yl)-7-oxo-[1,2,4]triazolo[1,5-a]pyrimidin-4(7H)-yl)acetamide], the pIC50 (read-out: IC50) was 7.00 to 9.00.

In the case of `CCc1c(N2CCN(C(=O)c3cccc(C)c3O)CC2)c(=O)n2nc(C3=CCCCCC3)nc2n1CC(=O)Nc1ccc(C(F)(F)F)cc1Cl` [Example 11, N-(2-Chloro-4-(trifluoromethyl)phenyl)-2-(2-(cyclohept-1-en-1-yl)-5-ethyl-6-(4-(2-hydroxy-3-methylbenzoyl)piperazin-1-yl)-7-oxo-[1,2,4]triazolo[1,5-a]pyrimidin-4(7H)-yl)acetamide], the pIC50 (read-out: IC50) is 7.00 to 9.00.

For `CCc1c(N2CCN(C(=O)c3ncnc(C)c3O)CC2)c(=O)n2nc(-c3ccc4c(c3)CN(CC(F)(F)F)CCO4)nc2n1CC(=O)Nc1ccc(C(F)(F)F)cc1Cl` [Example 180, N-(2-chloro-4-(trifluoromethyl)phenyl)-2-(5-ethyl-6-(4-(5-hydroxy-6-methylpyrimidine-4-carbonyl)piperazin-1-yl)-7-oxo-2-(4-(2,2,2-trifluoroethyl)-2,3,4,5-tetrahydrobenzo[f][1,4]oxazepin-7-yl) -[1,2,4]triazolo[1,5-a]pyrimidin-4(7H)-yl)acetamide], where the note is “read-out: IC50”, the pIC50 was 7.00 to 9.00.

With `CCc1c(N2CCN(C(=O)c3ncccc3O)CC2)c(=O)n2nc(C3=CC4CCC3C4)nc2n1CC(=O)Nc1ccc(C(F)(F)F)cc1Cl` (centres unmarked) [Example 41, 2-(2-(bicyclo[2.2.1]hept-2-en-2-yl)-5-ethyl-6-(4-(3-hydroxypicolinoyl)piperazin-1-yl)-7-oxo-[1,2,4]triazolo[1,5-a]pyrimidin-4(7H)-yl)-N-(2-chloro-4-(trifluoromethyl)phenyl)acetamide], where the note is “read-out: IC50”, the pIC50 is 7.00 to 9.00.

Turning to `CCc1c(C2CCN(C(=O)c3ncnc(C)c3O)CC2)c(=O)n2nc(C3=CCCCCC3)nc2n1CC(=O)Nc1ccc(S(F)(F)(F)(F)F)cc1` [Example 92, 2-(2-(cyclohept-1-en-1-yl)-5-ethyl-6-(1-(5-hydroxy-6-methylpyrimidine-4-carbonyl)piperidin-4-yl)-7-oxo-[1,2,4]triazolo[1,5-a]pyrimidin-4(7H)-yl)-N-(4-(pentafluoro-λ^6-sulfaneyl)phenyl)acetamide], the pIC50 (read-out: IC50) was 7.00 to 9.00.

As for `CCc1c(N2CCN(C(=O)c3ncnc(C)c3O)CC2)c(=O)n2nc(-c3cc4c(s3)CCN(CC(F)(F)F)C4)nc2n1CC(=O)Nc1ccc(C(F)(F)F)cc1Cl` [Example 179, N-(2-chloro-4-(trifluoromethyl)phenyl)-2-(5-ethyl-6-(4-(5-hydroxy-6-methylpyrimidine-4-carbonyl)piperazin-1-yl)-7-oxo-2-(5-(2,2,2-trifluoroethyl)-4,5,6,7-tetrahydrothieno[3,2-c]pyridin-2-yl)-[1,2,4]triazolo[1,5-a]pyrimidin-4(7H)-yl)acetamide], the pIC50 (read-out: IC50) is greater than 9.00.

Take `CCc1c(N2CCN(C(=O)c3ncccc3O)CC2)c(=O)n2nc(-c3ccc4ccoc4c3)nc2n1CC(=O)Nc1ccc(S(F)(F)(F)(F)F)cc1` [Example 78, 2-(2-(benzofuran-6-yl)-5-ethyl-6-(4-(3-hydroxypicolinoyl)piperazin-1-yl)-7-oxo-[1,2,4]triazolo[1 ,5-a]pyrimidin-4(7H)-yl)-N-(4-(pentafluoro-λ^6-sulfaneyl)phenyl)acetamide]: the pIC50 (read-out: IC50) was 7.00 to 9.00.

For `CCc1c(N2CCN(C(=O)c3ncnc(C)c3O)CC2)c(=O)n2nc(C3=CC4CN(C)CC4C3)nc2n1CC(=O)Nc1ccc(C(F)(F)F)cc1Cl` (centres unmarked) [Example 144, N-(2-chloro-4-(trifluoromethyl)phenyl)-2-(5-ethyl-6-(4-(5-hydroxy-6-methylpyrimidine-4-carbonyl)piperazin-1-yl)-2-(2-methyl-1,2,3,3a,4,6a-hexahydrocyclopenta[c]pyrrol-5-yl)-7-oxo-[1,2,4]triazolo[1,5-a]pyrimidin-4(7H)-yl)acetamide], the pIC50 (read-out: IC50) was 7.00 to 9.00.
